Results as given in PubChem BioAssay AID2060506 (Molecular Pharmacology Branch, DTP, NCI, 2025).
“And” between values parts separate entries of the source, which are not always exact repeats. Equal entries are not always repeated. Each block holds one compound with its values, some of them ahead of it.

System: 598228-144-R-J1-PDC complex spheroid viability
Test: Anticancer human tumor 598228-144-R-J1-PDC patient-derived serous endometrial adenocarcinoma cell line growth inhibition [GQUAD]
Settings: for viability, T/C: stronger effect = lower value
Description: DNA G-quadruplex Stabilizer Agents in Combinations in Complex Spheroids
A high-throughput screen of multi-cell type tumor spheroids was designed to identify active combinations of DNA G-quadruplex stabilizer agents and targeted small molecules. Complex spheroids include a stromal component modeled by human endothelial cells (HUVEC) and fibroblasts modeled by human mesenchymal stem cells (MSCs). The concentration ranges selected for each drug and investigational agent were based upon clinically achievable concentrations if the clinical Cmax of the agent was known.
Compounds. The drugs and investigational agents: pidnarulex (CX-5461; NSC782164), APTO-253 (NSC789042), BRACO-19 (NSC847499), peposertib (NSC802822), ceralasertib (NSC780249), elimusertib (NSC800525), camonsertib (NSC841442), AZD-1390 (NSC803789), olaparib (NSC753686), talazoparib (NSC767125), ART-558 (NSC835418), sotorasib (NSC818433), MRTX-1133 (NSC836407), SN-38 (NSC673596), topotecan (NSC609699), etoposide (NSC141540), doxorubicin (NSC123127), gemcitabine (NSC613327), 5-fluorouracil (NSC19893), paclitaxel (NSC125973), vemurafenib (NSC761431), panobinostat (NSC761190), R-306465 (JNJ-16241199; NSC773264), adavosertib (NSC754352), TP-3654 (NSC805149), carboplatin (NSC241240), KSQ-4279 (NSC840948), and staurosporine (NSC755774) were obtained from the National Cancer Institute (NCI) Developmental Therapeutics Program Chemical Repository (34). The FDA-approved anticancer drug set is available from the NCI Developmental Therapeutics Program. […] The stock solutions were prepared in dimethyl sulfoxide (DMSO, Sigma-Aldrich, St. Louis, MO, cat. D2650) at 800-fold the tested concentration and stored at -70 degrees C prior to their use. All drugs and investigational agents were tested over a range starting from a high concentration at or near the clinical Cmax and decreasing in half-log increments. If the clinical Cmax for an agent had not been determined, the highest concentration tested was 10 microM.
2.3 Cell Culture. All cells were maintained in an incubator at 37 degrees C and 5% CO2 with 95% humidity. The PDC lines were cultured according to standard operating procedures established by the NCI PDMR. All PDCs were thawed and cultured in Matrigel-coated flasks prepared with a working solution of 1X Ham's F-12 nutrient mix, without supplementation (Invitrogen, cat. 11765054), 100 U/mL penicillin-streptomycin (Invitrogen, cat. 15140122), and 2.5% Matrigel (Corning Inc., cat. 354248) for the first three passages. The 857933-349-R-J2-PDC line was cultured in 6C/Colon 1B media, which includes advanced DMEM/F-12 (Thermo Fisher Scientific, cat. 12634028), 10 mM HEPES (Thermo Fisher Scientific, cat. 15630080), 1X GlutaMAX supplement (Thermo Fisher Scientific, cat. 35050061), 0.1 mg/mL primocin (InvivoGen, cat. ant-pm-2), 10% defined fetal bovine serum, heat inactivated (HyClone Laboratories Inc., cat. SH30070.03HI), 50% L-WRN conditioned media (ATCC, cat. CRL-3276), 1.25 mM N-Acetyl-L-cysteine (Sigma-Aldrich, cat. A9165), 10 mM nicotinamide (Sigma-Aldrich, cat. N0636), 1X B-27 supplement (Thermo Fisher Scientific, cat. 17504044), 1X N-2 supplement (Thermo Fisher Scientific, cat. 17502048), 10 microM Y-27632 dihydrochloride (Tocris Bioscience, cat. 1254), and 50 ng/mL human EGF recombinant protein (Thermo Fisher Scientific, cat. PHG0311). The 485176-168-R4-J1-PDC line was cultured in Panc media, which includes all 6C/Colon 1B media components plus 100 ng/mL human FGF-10 (Thermo Fisher Scientific, cat. 100-26), 500 nM SB-431542 (Selleckchem, cat. S1067), and gastrin (Tocris, cat. 3006).
[…]

[1] = curve of first compound, second compound 0.0316 µM
[2] = curve of first compound, second compound 0.1 µM
[3] = curve of first compound, second compound 0.316 µM
[4] = curve of first compound, second compound 1 µM
[5] = curve of first compound, second compound 3.16 µM
[6] = curve of first compound, second compound 10 µM
[7] = second compound 0.0316 µM, first compound 0.0316 µM
[8] = second compound 0.0316 µM, first compound 0.1 µM
[9] = second compound 0.0316 µM, first compound 0.316 µM
[10] = second compound 0.0316 µM, first compound 1 µM
[11] = second compound 0.0316 µM, first compound 3.16 µM
[12] = second compound 0.0316 µM, first compound 10 µM
[13] = second compound 0.1 µM, first compound 0.0316 µM
[14] = second compound 0.1 µM, first compound 0.1 µM
[15] = second compound 0.1 µM, first compound 0.316 µM
[16] = second compound 0.1 µM, first compound 1 µM
[17] = second compound 0.1 µM, first compound 3.16 µM
[18] = second compound 0.1 µM, first compound 10 µM
[19] = second compound 0.316 µM, first compound 0.0316 µM
[20] = second compound 0.316 µM, first compound 0.1 µM
[21] = second compound 0.316 µM, first compound 0.316 µM
[22] = second compound 0.316 µM, first compound 1 µM
[23] = second compound 0.316 µM, first compound 3.16 µM
[24] = second compound 0.316 µM, first compound 10 µM
[25] = second compound 1 µM, first compound 0.0316 µM
[26] = second compound 1 µM, first compound 0.1 µM
[27] = second compound 1 µM, first compound 0.316 µM
[28] = second compound 1 µM, first compound 1 µM
[29] = second compound 1 µM, first compound 3.16 µM
[30] = second compound 1 µM, first compound 10 µM
[31] = second compound 3.16 µM, first compound 0.0316 µM
[32] = second compound 3.16 µM, first compound 0.1 µM
[33] = second compound 3.16 µM, first compound 0.316 µM
[34] = second compound 3.16 µM, first compound 1 µM
[35] = second compound 3.16 µM, first compound 3.16 µM
[36] = second compound 3.16 µM, first compound 10 µM
[37] = second compound 10 µM, first compound 0.0316 µM
[38] = second compound 10 µM, first compound 0.1 µM
[39] = second compound 10 µM, first compound 0.316 µM
[40] = second compound 10 µM, first compound 1 µM
[41] = second compound 10 µM, first compound 3.16 µM
[42] = second compound 10 µM, first compound 10 µM
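Further: spheroids exposed to the agents for one week before reading.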
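Wherever viability, T/C is given: percent of vehicle DMSO control viability so 100% = untreated growth.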

SMILES: COc1ccc([C@@H](O)c2cc(-c3ncnc4cc(N5CCOCC5)ccc34)c(F)cc2Cl)nn1 + Cc1[nH]c2ccc(F)cc2c1-c1nc2c3cccnc3c3ncccc3c2[nH]1
IC50 [1]: 3140 nM | IC50 [2]: 1220 nM | IC50 [3]: 1290 nM | IC50 [4]: 222 nM | IC50 [5]: < 31.6 nM | IC50 [6]: 112 nM | viability, T/C [7]: 96.8% | viability, T/C [8]: 114% | viability, T/C [9]: 87.8% | viability, T/C [10]: 76.7% | viability, T/C [11]: 50.4% | viability, T/C [12]: 29.1% | viability, T/C [13]: 112% | viability, T/C [14]: 96% | viability, T/C [15]: 62.6% | viability, T/C [16]: 59.5% | viability, T/C [17]: 35% | viability, T/C [18]: 26% | viability, T/C [19]: 82.2% | viability, T/C [20]: 71.5% | viability, T/C [21]: 72.8% | viability, T/C [22]: 50.5% | viability, T/C [23]: 40.8% | viability, T/C [24]: 32.4% | viability, T/C [25]: 64.2% | viability, T/C [26]: 67.4% | viability, T/C [27]: 37.4% | viability, T/C [28]: 36.9% | viability, T/C [29]: 27.4% | viability, T/C [30]: 18.8% | viability, T/C [31]: 48.3% | viability, T/C [32]: 44.9% | viability, T/C [33]: 34.1% | viability, T/C [34]: 21.1% | viability, T/C [35]: 18.9% | viability, T/C [36]: 15.2% | viability, T/C [37]: 61.5% | viability, T/C [38]: 49.6% | viability, T/C [39]: 43.9% | viability, T/C [40]: 31.1% | viability, T/C [41]: 25.6% | viability, T/C [42]: 22.5%

SMILES: COc1ncnc(C2CC2)c1-c1ncc2cnn(Cc3ccc(-c4nc(C(F)(F)F)cn4C(C)C)cc3)c2n1 + Cc1cnc(CNC(=O)c2c(=O)c3ccc(N4CCCN(C)CC4)nc3n3c2sc2ccccc23)cn1
IC50 [1]: > 10000 nM | IC50 [2]: > 10000 nM | IC50 [3]: > 10000 nM | IC50 [4]: > 10000 nM | IC50 [5]: > 10000 nM | IC50 [6]: < 31.6 nM | viability, T/C [7]: 81% | viability, T/C [8]: 88.8% | viability, T/C [9]: 72.9% | viability, T/C [10]: 86.8% | viability, T/C [11]: 102% | viability, T/C [12]: 85.4% | viability, T/C [13]: 67.3% | viability, T/C [14]: 79.3% | viability, T/C [15]: 95.1% | viability, T/C [16]: 68.4% | viability, T/C [17]: 63.9% | viability, T/C [18]: 78.2% | viability, T/C [19]: 82.6% | viability, T/C [20]: 77.5% | viability, T/C [21]: 60.9% | viability, T/C [22]: 73.4% | viability, T/C [23]: 80.7% | viability, T/C [24]: 65.2% | viability, T/C [25]: 77.6% | viability, T/C [26]: 76.4% | viability, T/C [27]: 69.8% | viability, T/C [28]: 62.8% | viability, T/C [29]: 71.2% | viability, T/C [30]: 90% | viability, T/C [31]: 62.3% | viability, T/C [32]: 65.9% | viability, T/C [33]: 60.5% | viability, T/C [34]: 53.8% | viability, T/C [35]: 57.8% | viability, T/C [36]: 65.1% | viability, T/C [37]: 38.7% | viability, T/C [38]: 24.8% | viability, T/C [39]: 31.6% | viability, T/C [40]: 24.8% | viability, T/C [41]: 34.6% | viability, T/C [42]: 23.6%

SMILES: Cc1cnc(CNC(=O)c2c(=O)c3ccc(N4CCCN(C)CC4)nc3n3c2sc2ccccc23)cn1
viability, T/C (compound 0.1 µM): 73.5% [middle of 12 runs] | viability, T/C (compound 1 µM): 65.9% [middle of 12 runs] | viability, T/C (compound 3.16 µM): 56.4% [middle of 12 runs]

Further lines, with some results ahead:

IC50 [1]: 71.2 nM | IC50 [2]: 52.6 nM | IC50 [3]: 68.4 nM | IC50 [4]: < 31.6 nM | IC50 [5]: < 31.6 nM | IC50 [6]: < 31.6 nM
SMILES: Nc1ccn(C2OC(CO)C(O)C2(F)F)c(=O)n1 (stereo unspecified) + Cc1cnc(CNC(=O)c2c(=O)c3ccc(N4CCCN(C)CC4)nc3n3c2sc2ccccc23)cn1
viability, T/C [7]: 65.9% | viability, T/C [8]: 42.8% | viability, T/C [9]: 41.7% | viability, T/C [10]: 42.5% | viability, T/C [11]: 43.6% | viability, T/C [12]: 44.6% | viability, T/C [13]: 58.7% | viability, T/C [14]: 38.4% | viability, T/C [15]: 45.7% | viability, T/C [16]: 46.6% | viability, T/C [17]: 40% | viability, T/C [18]: 39% | viability, T/C [19]: 63.5% | viability, T/C [20]: 43.8% | viability, T/C [21]: 38.2% | viability, T/C [22]: 44.9% | viability, T/C [23]: 44.8% | viability, T/C [24]: 39.1% | viability, T/C [25]: 58.3% | viability, T/C [26]: 41.6% | viability, T/C [27]: 47.5% | viability, T/C [28]: 39.7% | viability, T/C [29]: 54.7% | viability, T/C [30]: 46.8% | viability, T/C [31]: 60.2% | viability, T/C [32]: 43.2% | viability, T/C [33]: 36.4% | viability, T/C [34]: 26.4% | viability, T/C [35]: 50.5% | viability, T/C [36]: 37% | viability, T/C [37]: 48.5% | viability, T/C [38]: 27.7% | viability, T/C [39]: 23.3% | viability, T/C [40]: 30.2% | viability, T/C [41]: 38.8% | viability, T/C [42]: 18.6%

IC50 (curve of compound): 755 nM and 646 nM and 915 nM
SMILES: COc1cccc2c1C(=O)c1c(O)c3c(c(O)c1C2=O)CC(O)(C(=O)CO)CC3OC1CC(N)C(O)C(C)O1 (stereo unspecified)
viability, T/C (compound 0.0316 µM): 93.1% and 76% and 90.5% | viability, T/C (compound 0.1 µM): 76.3% and 67.8% and 76.2% | viability, T/C (compound 0.316 µM): 78.5% and 73.6% and 72.8% | viability, T/C (compound 1 µM): 41.3% and 36.2% and 49.6% | viability, T/C (compound 3.16 µM): 1.91% and 2.01% and 1.77% | viability, T/C (compound 10 µM): 0.43% and 0.5% and 0.55%
